Some test systems named below: HL-60(TB) leukemia; HOP-92 NSCLC; MALME-3M melanoma; MDA-N; NCI-H522 lung; OVCAR-8 ovarian; UACC-62 melanoma; NCI-H226 lung; NCI-H460 lung.
Common to all, as to test: NCI tumour cell line growth inhibition, 48 h

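Compound exposure: 48 hours, 5 concentrations, 96-well plates. GI50: concentration for 50% inhibition of growth. Definition used: TGI = concentration required for complete inhibition of growth.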

With `COC(=O)C1=Nc2c(C)nn(-c3ccccc3)c2N=C(c2ccc(C)cc2)C1`, the TGI in the assay with HL-60(TB) leukemia, in the assay on HOP-92 NSCLC, in the assay on MALME-3M melanoma, in the assay with MDA-N, in the assay on NCI-H522 lung and in the assay on OVCAR-8 ovarian was over 10 µM throughout. The molecule further showed a TGI in the assay on UACC-62 melanoma of over 10 µM.
In the case of `CC(C)=CCc1c(O)cc(/C=C/c2cc(O)c3c(c2)C[C@@H]2C(C)(C)[C@H](O)[C@H](O)C[C@@]2(C)O3)cc1O`, the GI50 was under 0.001 µM with HL-60(TB) leukemia; 0.0104 µM in the assay on HOP-92 NSCLC; 1.21 µM in the assay with MALME-3M melanoma; 1.27 µM with MDA-N; 1.99 µM in the assay on NCI-H226 lung; 0.00146 µM in the assay on NCI-H460 lung. Besides, the GI50 in the assay on NCI-H522 lung was 0.363 µM; in the assay on OVCAR-8 ovarian it was 1.92 µM; in the assay with UACC-62 melanoma, 0.0462 µM. The TGI in the assay on HL-60(TB) leukemia was 3.05 µM; in the assay with HOP-92 NSCLC, 2.6 µM; with MALME-3M melanoma, 6.51 µM; with MDA-N, over 10 µM; in the assay with NCI-H226 lung, over 10 µM; with NCI-H460 lung it was over 4.36 µM. Besides, the values for the TGI with NCI-H522 lung, in the assay on OVCAR-8 ovarian and in the assay on UACC-62 melanoma were 2.86 µM, over 10 µM and 0.325 µM, respectively.
On to `CCOC(=O)CC1(O)C=CC(=O)C=C1`, for which the GI50 with HL-60(TB) leukemia is 1 µg/mL; in the assay on HOP-92 NSCLC, 3.22 µg/mL; in the assay on MALME-3M melanoma it was 0.914 µg/mL; in the assay on MDA-N, 2.83 µg/mL; with NCI-H226 lung it was 4.79 µg/mL; in the assay with NCI-H460 lung, 1.12 µg/mL. The figures for the GI50 in the assay on NCI-H522 lung, in the assay on OVCAR-8 ovarian and in the assay with UACC-62 melanoma were 0.515 µg/mL, 0.425 µg/mL and 0.485 µg/mL, respectively. For the same molecule, the TGI in the assay on HL-60(TB) leukemia was 24.3 µg/mL; in the assay on HOP-92 NSCLC, 5.44 µg/mL; in the assay on MALME-3M melanoma it was 2.89 µg/mL; with MDA-N, 7.25 µg/mL; with NCI-H226 lung, 13 µg/mL; with NCI-H460 lung it was 3.21 µg/mL. In addition, the results for the TGI with NCI-H522 lung, with OVCAR-8 ovarian and in the assay on UACC-62 melanoma were 1.31 µg/mL, 1.13 µg/mL and 1.7 µg/mL, respectively.
In the case of `CC(=O)OC1CC2CCC1(C)C2(C)C` (stereo not drawn), the TGI in the assay on HL-60(TB) leukemia, in the assay with MALME-3M melanoma, in the assay on MDA-N, in the assay with NCI-H226 lung, with NCI-H460 lung and in the assay on NCI-H522 lung was over 100 µM each time. Further, the TGI with OVCAR-8 ovarian and with UACC-62 melanoma was over 100 µM throughout.
With `COc1cc(OC)c2c(=O)c(O)c(-c3ccc(OC)c(OC)c3)oc2c1`, the TGI in the assay on HL-60(TB) leukemia was 44.3 µM; with HOP-92 NSCLC it was 20.7 µM; with MALME-3M melanoma it was over 31.6 µM; in the assay with MDA-N it was over 100 µM; in the assay with NCI-H226 lung it was over 100 µM; with NCI-H460 lung, over 100 µM. For the same molecule, the TGI in the assay on NCI-H522 lung was over 31.6 µM; in the assay with OVCAR-8 ovarian it was over 100 µM; with UACC-62 melanoma, over 31.6 µM.
With `O=C1OC(c2ccc(O)c(-c3ccccc3)c2)(c2ccc(O)c(-c3ccccc3)c2)c2c(Cl)c(Cl)c(Cl)c(Cl)c21`, the TGI was 12.3 µM in the assay with HL-60(TB) leukemia; over 100 µM in the assay on HOP-92 NSCLC; over 100 µM in the assay on MALME-3M melanoma; over 100 µM with MDA-N; over 100 µM in the assay with NCI-H226 lung; over 100 µM in the assay on NCI-H460 lung. The TGI in the assay on NCI-H522 lung, in the assay on OVCAR-8 ovarian and with UACC-62 melanoma was over 100 µM throughout.
In the case of `CCc1c2c(nc3cc4c(cc13)OCO4)-c1cc3c(c(=O)n1C2)COC(=O)[C@@]3(CC)OC(=O)CN`, the GI50 with HL-60(TB) leukemia is under 0.01 µM; with MALME-3M melanoma, under 0.015 µM; in the assay with MDA-N, under 0.01 µM; with NCI-H226 lung, under 0.01 µM; in the assay with NCI-H460 lung, under 0.01 µM; in the assay on NCI-H522 lung, under 0.01 µM. Besides, the results for the GI50 in the assay on OVCAR-8 ovarian and in the assay on UACC-62 melanoma were under 0.01 µM and under 0.022 µM, respectively. The TGI is under 0.01 µM in the assay on HL-60(TB) leukemia; 1.43 µM in the assay with MALME-3M melanoma; 2.18 µM in the assay on MDA-N; under 0.01 µM in the assay with NCI-H226 lung; under 0.01 µM in the assay on NCI-H460 lung; 0.239 µM with NCI-H522 lung. Besides, the TGI with OVCAR-8 ovarian came to 0.131 µM.
As for `Cc1nn(C(=O)c2ccc(Cl)cc2)c2c1C(c1ccc([N+](=O)[O-])cc1)SC(N)=N2` (stereo not drawn), the TGI with HL-60(TB) leukemia, in the assay on HOP-92 NSCLC, in the assay on MALME-3M melanoma, with MDA-N, in the assay on NCI-H226 lung and in the assay on NCI-H460 lung was over 10 µM each time. In addition, the TGI in the assay with NCI-H522 lung, in the assay on OVCAR-8 ovarian and with UACC-62 melanoma was over 10 µM throughout.
For `CO[C@@H]1[C@@H](OC2OC(C)C(OC3CC(C)(O)C(OC(=O)CC(C)C)C(C)O3)C(N(C)C)C2O)[C@@H](CC=O)C[C@@H](C)C(=O)/C=C/C2O[C@H]2C[C@@H](C)OC(=O)C[C@H]1OC(C)=O` (stereo partly drawn), the TGI turned out to be 25 µM in the assay with HL-60(TB) leukemia; 27 µM in the assay on HOP-92 NSCLC; 27.9 µM with MALME-3M melanoma; 29.8 µM in the assay with MDA-N; 33.5 µM in the assay with NCI-H226 lung; 41.8 µM with NCI-H460 lung. Besides, the TGI in the assay with NCI-H522 lung is 36 µM; in the assay on OVCAR-8 ovarian, over 100 µM; in the assay with UACC-62 melanoma, 60.1 µM.
On to `O=C(O)C1C2CC3C(OC(=O)C31)C2Br` (stereo not drawn), for which the TGI in the assay on HL-60(TB) leukemia was over 23.4 µM; with HOP-92 NSCLC, over 100 µM; in the assay with MALME-3M melanoma it was over 100 µM; in the assay with MDA-N it was over 100 µM; in the assay with NCI-H226 lung, over 100 µM; with NCI-H460 lung, over 100 µM. The TGI in the assay with NCI-H522 lung, in the assay with OVCAR-8 ovarian and with UACC-62 melanoma was over 100 µM throughout.
Consider `CN(C)CCNc1ccc([N+](=O)[O-])c2nc3ccccc3c(N)c12`, for which the TGI was 6.86 µM in the assay on HL-60(TB) leukemia; 7.71 µM in the assay with HOP-92 NSCLC; 3.12 µM in the assay with MALME-3M melanoma; 2.09 µM with MDA-N; over 10 µM with NCI-H226 lung; 1.66 µM with NCI-H460 lung. Besides, the TGI with OVCAR-8 ovarian is over 10 µM; in the assay on UACC-62 melanoma it was 3.54 µM.
For the molecule `O=C1Nc2ccccc2C1Cc1ccccc1` (stereo not drawn), the TGI in the assay with HL-60(TB) leukemia, in the assay on HOP-92 NSCLC, in the assay on MALME-3M melanoma, with MDA-N, with NCI-H226 lung and in the assay on NCI-H460 lung was over 100 µM throughout. Moreover, the TGI in the assay on NCI-H522 lung, in the assay with OVCAR-8 ovarian and in the assay with UACC-62 melanoma was over 100 µM in each case.

These data come from PubChem BioAssay (NCI).
